tested on: Intestinal motility in dogs (jejunum); test: Intestinal motility in dogs (inhibition of jejunal motility, balloon method); type: in vivo, dog (mongrel); conditions: Canis lupus familiaris; mongrel dogs 8 to 16 kg, urethane (1.5 g/kg) and morphine (15 mg/kg) anesthesia; balloon at jejunum, 10 cm H2O; maximum change in motility amplitude; route not given; read-out: 50% inhibition dose (ED50)
Method: Intestinal motility in dogs: Method: Mongrel dogs weighing 8 to 16 kg which were withheld from any food and water for 24 hours were anesthetized with a combination of urethane (1.5 g/kg) and morphine (15 mg/kg). A balloon was placed at the jejunum of the dog, compressed at a pressure of 10 cm. H2 O and connected to a strain gauge. Changes in the motility were principally recorded in terms of the amplitude of the movements, but the number of movements occurring were also taken into account. The maximum change in all the determinations served as the basis for calculations of the 50% inhibition dose (ED50).

SMILES | ED50 [µg/kg]
Cl.Oc1cc2c(cc1O)C(CNc1ccc(Cl)cc1)NCC2 (stereo not drawn) [Compound No. 2, 1-(p-Chloroanilinomethyl)-6,7-dihydroxy-1,2,3,4-tetrahydroisoquinoline hydrochloride] | 1.5
Cl.Cl.Oc1ccc(NCC2NCCc3cc(O)c(O)cc32)cc1 (stereo not drawn) [Compound No. 3, 1-(p-Hydroxyanilinomethyl)-6,7-dihydroxy-1,2,3,4-tetrahydroisoquinoline dihydrochloride] | 4
Oc1cc2c(cc1O)C(CNc1ccc(F)cc1)NCC2 (stereo not drawn) [Compound No. 1, 1-(p-Fluoroanilinomethyl)-6,7-dihydroxy-1,2,3,4-tetrahydroisoquinoline d-camphor-10-sulfonate] | 3

— patent publication US4220647A, “1,2,3,4-Tetrahydroisoquinolines and the preparation thereof” (Fujisawa Pharmaceutical Co., Ltd., priority 1974, dated 1980)
